Laboratory results published in PubChem BioAssay AID248 (DTP/NCI, 2004).
Where “and” joins values, the source holds several entries; their conditions need not be identical. Equal entries are not always repeated. Inconclusive results and toxic doses are left out.

Tested on: L1210 leukemia ip in BDF1 mice, survival T/C
Assay: NCI In Vivo Anticancer Drug Screen. Data for tumor model L1210 Leukemia (intraperitoneal) in B6D2F1 (BDF1) mice
Conditions: endpoint: mean survival time, higher = longer survival
Method in brief: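 Survival endpoint. Drug-treated group vs vehicle group, expressed as T divided by C. Tumor passaged by transplantation.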

[1] = dose: 100.0 mg/kg/injection, schedule: Q01DX009 (ip), vehicle: saline
[2] = dose: 200.0 mg/kg/injection, schedule: Q01DX009 (ip), vehicle: saline
[3] = dose: 400.0 mg/kg/injection, schedule: Q01DX009 (ip), vehicle: saline
[4] = dose: 100.0 mg/kg/injection, schedule: Q04DX003 (ip), vehicle: saline with Tween-80
[5] = dose: 200.0 mg/kg/injection, schedule: Q04DX003 (ip), vehicle: saline with Tween-80
[6] = dose: 400.0 mg/kg/injection, schedule: Q04DX003 (ip), vehicle: saline with Tween-80
[7] = dose: 12.5 mg/kg/injection, schedule: Q04DX003 (ip), vehicle: saline with Tween-80
[8] = dose: 25.0 mg/kg/injection, schedule: Q04DX003 (ip), vehicle: saline with Tween-80
[9] = dose: 50.0 mg/kg/injection, schedule: Q04DX003 (ip), vehicle: saline with Tween-80
[10] = dose: 100.0 mg/kg/injection, schedule: Q01DX009 (ip), vehicle: Klucel (hydroxypropylcellulose) (HPC)
[11] = dose: 100.0 mg/kg/injection, schedule: Q04DX003 (ip), vehicle: Klucel (hydroxypropylcellulose) (HPC)
[12] = dose: 200.0 mg/kg/injection, schedule: Q01DX009 (ip), vehicle: Klucel (hydroxypropylcellulose) (HPC)
[13] = dose: 200.0 mg/kg/injection, schedule: Q04DX003 (ip), vehicle: Klucel (hydroxypropylcellulose) (HPC)
[14] = dose: 400.0 mg/kg/injection, schedule: Q01DX009 (ip), vehicle: Klucel (hydroxypropylcellulose) (HPC)
[15] = dose: 400.0 mg/kg/injection, schedule: Q04DX003 (ip), vehicle: Klucel (hydroxypropylcellulose) (HPC)
[16] = dose: 100.0 mg/kg/injection, schedule: Q04DX003 (ip), vehicle: saline
[17] = dose: 200.0 mg/kg/injection, schedule: Q04DX003 (ip), vehicle: saline
[18] = dose: 50.0 mg/kg/injection, schedule: Q01DX009 (ip), vehicle: saline
[19] = dose: 6.25 mg/kg/injection, schedule: Q01DX009 (ip), vehicle: saline with Tween-80
[20] = dose: 12.5 mg/kg/injection, schedule: Q01DX009 (ip), vehicle: saline with Tween-80

Structure (SMILES): COc1cc(Cl)ccc1NC(=O)Oc1ccc(NC(C)=O)cc1
- T/C [1]: 110 % of control
- T/C [2]: 92 % of control
- T/C [3]: 103 % of control

Structure (SMILES): COc1ccc(OC(=S)N(C)C)cc1
- T/C [4]: 94 % of control
- T/C [5]: 88 % of control
- T/C [6]: 102 % of control

Structure (SMILES): Nc1nc(N)c2c(n1)CCP(c1ccccc1)C2 (centres undefined)
- T/C [7]: 98 % of control
- T/C [8]: 96 % of control
- T/C [9]: 95 % of control

Structure (SMILES): COc1ccc(CC(CO)C(CO)Cc2ccc(OC)c(OC)c2)cc1OC (centres undefined)
- T/C [10]: 97 % of control
- T/C [11]: 98 % of control
- T/C [12]: 93 % of control
- T/C [13]: 101 % of control
- T/C [14]: 93 % of control
- T/C [15]: 100 % of control

Structure (SMILES): CC(=O)OCC1OC(n2cnc3c(=S)nc[nH]c32)C(OC(C)=O)C1OC(C)=O (centres undefined)
- T/C (dose: 6.5 mg/kg/injection, schedule: Q01DX Z (ip), vehicle: carboxymethylcellulose (CMC)): 122 % of control
- T/C (dose: 13.0 mg/kg/injection, schedule: Q01DX Z (ip), vehicle: carboxymethylcellulose (CMC)): 113 % of control
- T/C (dose: 40.0 mg/kg/injection, schedule: Q01DX Z (ip), vehicle: carboxymethylcellulose (CMC)): 151 % of control
- T/C (dose: 180.0 mg/kg/injection, schedule: Q01DX Z (ip), vehicle: carboxymethylcellulose (CMC)): 107 % of control

Structure (SMILES): Cc1ccc(NC(=O)CI)cc1
- T/C (dose: 50.0 mg/kg/injection, schedule: Q04DX002 (ip), vehicle: other): 100 % of control

Structure (SMILES): CCN(CC)C(=O)C1C2CC3OC(=O)C1C3C2 (centres undefined)
- T/C [16]: 105 % of control and 108 % of control
- T/C [17]: 94 % of control and 102 % of control
- T/C (dose: 400.0 mg/kg/injection, schedule: Q04DX003 (ip), vehicle: saline): 104 % of control

Structure (SMILES): CC(=O)OCCC(C)Nc1ccnc2cc(Cl)ccc12 (centres undefined)
- T/C (dose: 20.0 mg/kg/injection, schedule: Q04DX003 (ip), vehicle: saline with Tween-80): 92 % of control
- T/C (dose: 40.0 mg/kg/injection, schedule: Q04DX003 (ip), vehicle: saline with Tween-80): 87 % of control

Structure (SMILES): COc1cc(C=O)cc(OC)c1OC
- T/C [11]: 93 % of control
- T/C [13]: 93 % of control
- T/C [15]: 87 % of control

Structure (SMILES): COC(=O)C1ON(C(=O)c2ccccc2)C(C)C(O)C1I (centres undefined)
- T/C [11]: 96 % of control
- T/C [13]: 97 % of control
- T/C [15]: 92 % of control

Structure (SMILES): CC(=O)OCC(=O)[C@@]1(O)[C@H](C)C[C@H]2[C@@H]3C=C(C)C4=Cc5c(cnn5-c5ccc(F)cc5)C[C@]4(C)[C@H]3[C@@H](O)C[C@@]21C
- T/C (dose: 0.62 mg/kg/injection, schedule: Q01DX015 (sc), vehicle: steriod suspending solution): 120 % of control
- T/C (dose: 1.25 mg/kg/injection, schedule: Q01DX015 (sc), vehicle: steriod suspending solution): 117 % of control
- T/C (dose: 2.5 mg/kg/injection, schedule: Q01DX015 (sc), vehicle: steriod suspending solution): 102 % of control
- T/C (dose: 5.0 mg/kg/injection, schedule: Q01DX015 (sc), vehicle: steriod suspending solution): 117 % of control and 123 % of control
- T/C (dose: 6.25 mg/kg/injection, schedule: Q01DX009 (sc), vehicle: steriod suspending solution): 100 % of control
- T/C (dose: 10.0 mg/kg/injection, schedule: Q01DX015 (sc), vehicle: steriod suspending solution): 111 % of control
- T/C (dose: 20.0 mg/kg/injection, schedule: Q01DX015 (sc), vehicle: steriod suspending solution): 103 % of control
- T/C (dose: 40.0 mg/kg/injection, schedule: Q01DX015 (sc), vehicle: steriod suspending solution): 101 % of control
- T/C (dose: 50.0 mg/kg/injection, schedule: Q04DX003 (sc), vehicle: steriod suspending solution): 110 % of control
- T/C (dose: 100.0 mg/kg/injection, schedule: Q01DX001 (ip), vehicle: steriod suspending solution): 98 % of control
- T/C (dose: 100.0 mg/kg/injection, schedule: Q04DX003 (sc), vehicle: steriod suspending solution): 108 % of control
- T/C (dose: 160.0 mg/kg/injection, schedule: Q01DX015 (sc), vehicle: steriod suspending solution): 91 % of control
- T/C (dose: 200.0 mg/kg/injection, schedule: Q01DX001 (ip), vehicle: steriod suspending solution): 91 % of control
- T/C (dose: 200.0 mg/kg/injection, schedule: Q04DX003 (sc), vehicle: steriod suspending solution): 103 % of control

Structure (SMILES): C[N+](C)(Cc1ccccc1)C1c2ccccc2-c2ccc(Br)cc21 (centres undefined)
- T/C (dose: 12.5 mg/kg/injection, schedule: Q01DX009 (ip), vehicle: Klucel (hydroxypropylcellulose) (HPC)): 97 % of control
- T/C (dose: 12.5 mg/kg/injection, schedule: Q04DX003 (ip), vehicle: Klucel (hydroxypropylcellulose) (HPC)): 94 % of control
- T/C (dose: 25.0 mg/kg/injection, schedule: Q01DX009 (ip), vehicle: Klucel (hydroxypropylcellulose) (HPC)): 92 % of control
- T/C (dose: 25.0 mg/kg/injection, schedule: Q04DX003 (ip), vehicle: Klucel (hydroxypropylcellulose) (HPC)): 94 % of control
- T/C (dose: 50.0 mg/kg/injection, schedule: Q01DX009 (ip), vehicle: Klucel (hydroxypropylcellulose) (HPC)): 96 % of control
- T/C (dose: 50.0 mg/kg/injection, schedule: Q04DX003 (ip), vehicle: Klucel (hydroxypropylcellulose) (HPC)): 88 % of control

Structure (SMILES): O=P(OCc1ccccc1)(N(CCCl)CCCl)N1CCCC1 (centres undefined)
- T/C (dose: 16.0 mg/kg/injection, schedule: Q01DX Z (ip), vehicle: saline): 92 % of control
- T/C (dose: 32.0 mg/kg/injection, schedule: Q01DX Z (ip), vehicle: saline): 90 % of control
- T/C (dose: 64.0 mg/kg/injection, schedule: Q01DX Z (ip), vehicle: saline): 101 % of control
- T/C (dose: 128.0 mg/kg/injection, schedule: Q01DX Z (ip), vehicle: saline): 106 % of control

Structure (SMILES): CC(=O)Nc1ccc(S(=O)(=O)Nc2ccccc2F)cc1
- T/C [1]: 102 % of control
- T/C [2]: 102 % of control
- T/C [3]: 105 % of control

Structure (SMILES): Nc1ccn(CC(=O)c2ccco2)c(=O)n1
- T/C [18]: 111 % of control
- T/C [1]: 111 % of control and 90 % of control
- T/C [16]: 104 % of control
- T/C [2]: 105 % of control
- T/C [17]: 97 % of control

Structure (SMILES): NC(=S)N/N=C\c1nccc2ccsc12
- T/C (dose: 100.0 mg/kg/injection, schedule: Q04DX002 (ip), vehicle: saline with Tween-80): 113 % of control
- T/C (dose: 200.0 mg/kg/injection, schedule: Q04DX002 (ip), vehicle: saline with Tween-80): 92 % of control
- T/C (dose: 400.0 mg/kg/injection, schedule: Q04DX002 (ip), vehicle: saline with Tween-80): 103 % of control

Structure (SMILES): O=S(=O)(Nc1ccc(C(F)(F)F)cc1)c1ccc(C(F)(F)F)cc1
- T/C [11]: 95 % of control
- T/C [13]: 92 % of control

Structure (SMILES): CCOC(=O)C1SCSCC1=O (centres undefined)
- T/C [4]: 102 % of control
- T/C [5]: 98 % of control
- T/C [6]: 98 % of control

Structure (SMILES): O=C(Nc1ccc(Br)cc1)c1nc(Br)[nH]c1Br
- T/C [19]: 94 % of control
- T/C [20]: 89 % of control
- T/C (dose: 25.0 mg/kg/injection, schedule: Q01DX009 (ip), vehicle: saline with Tween-80): 89 % of control

Structure (SMILES): FC1(F)SC2CCCC2C1(F)F (centres undefined)
- T/C (dose: 3.13 mg/kg/injection, schedule: Q01DX009 (ip), vehicle: saline with Tween-80): 95 % of control
- T/C [19]: 106 % of control
- T/C [20]: 95 % of control and 101 % of control
- T/C [7]: 101 % of control
- T/C [8]: 104 % of control
- T/C [9]: 95 % of control

Structure (SMILES): CC(C)c1ccc(C(O)C2CC2)cc1 (centres undefined)
- T/C [4]: 94 % of control

Structure (SMILES): CC(=C(C#N)C#N)c1ccccc1
- T/C [7]: 95 % of control
- T/C [8]: 94 % of control
- T/C [9]: 89 % of control

Structure (SMILES): O=C(O)C1CCCCC1C(=O)Nc1ccc(Cl)cc1 (centres undefined)
- T/C (dose: 50.0 mg/kg/injection, schedule: Q01DX009 (ip), vehicle: saline with Tween-80): 88 % of control
- T/C (dose: 100.0 mg/kg/injection, schedule: Q01DX009 (ip), vehicle: saline with Tween-80): 87 % of control
- T/C [4]: 96 % of control
- T/C (dose: 200.0 mg/kg/injection, schedule: Q01DX009 (ip), vehicle: saline with Tween-80): 98 % of control
- T/C [5]: 97 % of control

Structure (SMILES): c1ccc(C[N+](Cc2ccccc2)=C2CCCCC2)cc1
- T/C [18]: 92 % of control
- T/C [1]: 100 % of control
- T/C [16]: 98 % of control
- T/C [17]: 103 % of control

Structure (SMILES): COC(/C=C\C(OC)OC)OC
- T/C (dose: 12.5 mg/kg/injection, schedule: Q04DX003 (ip), vehicle: saline): 106 % of control
- T/C (dose: 25.0 mg/kg/injection, schedule: Q04DX003 (ip), vehicle: saline): 101 % of control
- T/C (dose: 50.0 mg/kg/injection, schedule: Q04DX003 (ip), vehicle: saline): 101 % of control
- T/C [10]: 98 % of control
- T/C [12]: 96 % of control
- T/C [14]: 96 % of control
